Data on 34 molecules can be found in US11224224B2, “Thiobenzoimidazole as fungicides” (REDAG CROP PROTECTION LTD, priority 2017, dated 2022).

Common to all, as to type: cell-based
The subject of one experiment is Pythium ultimum. The experiment is described as follows: Amended agar assay (PDA), colony growth. Also on record: key to % control Pythium ultimum 20 ppm: D: no control detected at this concentration; C: up to 50% control; B: from 50 to 99% control; A: a control of greater than 99%, i.e. no detectable colony growth. As to conditions: for EC50 / inhibition of growth at 20 ppm: Globisporangium ultimum; for EC50: amended agar, 5-fold dilutions; for inhibition of growth at 20 ppm / % control Pythium ultimum 20 ppm: 20 ppm in amended PDA, 18° C., reduction in colony growth vs control plate. Here is the method: (§1) Testing was carried out on potato dextrose agar (PDA) amended with each compound at a test concentration of 20 ppm. Amended agar was poured into three replicate 9 cm petri dishes. Each replicate dish was inoculated in the centre with a 5 mm agar plug taken from the leading edge of a culture aged between 2 and 7 days old; the age of the culture was dependant on the growth rate of the pathogen being tested. The test pathogens were Pythium ultimum and Phytophthora cinnamomi. Plates were incubated at 18° C. and the diameter of each colony measured before growth on the fastest growing plate reached the plate edge. This varied between 2 and 7 days depending on the growth rate of test pathogens. The % reduction in colony growth compared to the control plate was calculated for each pathogen. The results are provided in Table 1, in which D represents no control detected at this concentration; C represents up to 50% control; B from 50 to 99% control; and A represents a control of greater than 99%, i.e. no detectable colony growth.
(§2) Alternatively, or in addition, the same assay was conducted at descending test concentrations with 5-fold dilutions typically down to 0.032 ppm though sometimes as low as 0.00026 ppm, and an EC50 (the concentration at which 50% control would be achieved) was determined. The results are provided in Table 1 in which G represents an EC50 above 20 ppm, F represents an EC50 of 1-20 ppm and E represents and EC50 less than 1 ppm.

For the next experiment, the system named is Phytophthora cinnamomi. The experiment is described as follows: Amended agar assay (PDA), colony growth. Also on record: key to % control Phytophthora spp. 20 ppm: D: no control detected at this concentration; C: up to 50% control; B: from 50 to 99% control; A: a control of greater than 99%, i.e. no detectable colony growth. As to conditions: for EC50 / inhibition of growth at 20 ppm: Phytophthora cinnamomi; for EC50: amended agar, 5-fold dilutions (cells without *), read-out: EC50 Phytophthora spp.; for inhibition of growth at 20 ppm / % control Phytophthora spp. 20 ppm: 20 ppm in amended PDA, 18° C., reduction in colony growth vs control plate; for inhibition of growth at 20 ppm: read-out: % control Phytophthora spp. 20 ppm. Here is the method: as §1, §2

For another experiment, the system named is oomycete plant pathogens. The experiment can be described thus: Fungicidal activity testing, overall summary. Conditions: summary statement on Table 1. Here is the method: The activity of compounds of the invention was assessed by testing against certain oomycete plant pathogens and representative data are presented in Table 1.

One may read the EC50 as the concentration at which the effect is half-maximal.

SMILES strings stand for the structures. Converted amounts (≈) assume the structure as drawn.

As to `Cn1nnnc1-n1c(SCc2csc(NC(=O)OC(C)(C)C)n2)nc2ccc(Br)cc21` [Example 53], the EC50 with Pythium ultimum and with Phytophthora cinnamomi was under 1 µg/mL throughout. Also, the “control over the pathogens tested” value in the experiment with oomycete plant pathogens was “good to excellent control”.

On to `Cn1ccnc1-n1c(SCc2ccccn2)nc2ccccc21` [Example 49], for which, in the experiment on Pythium ultimum, the inhibition of growth at 20 ppm was over 99% and the EC50 lay within 1 to 20 µg/mL (≈ 3.11 to 62.2 µM). In the experiment with Phytophthora cinnamomi, the inhibition of growth at 20 ppm lay in the range of 50 to 99% and the EC50 lay within 1 to 20 µg/mL (≈ 3.11 to 62.2 µM). Moreover, the “control over the pathogens tested” value with oomycete plant pathogens is listed as “good to excellent control”.

As to `Cn1nnnc1-n1c(SCc2cc3ccccc3cn2)nc2ccccc21` [Example 19], the inhibition of growth at 20 ppm with Pythium ultimum and in the experiment with Phytophthora cinnamomi was 50 to 99% in each case.

On to `CCOC(=O)Nc1cccc(CSc2nc3ccccc3n2-c2nnnn2C)n1` [Example 28, Ethyl (6-(((1-(1-methyl-1H-tetrazol-5-yl)-1H-benzo[d]imidazol-2-yl)thio)methyl)pyridin-2-yl)carbamate], for which the EC50 with Pythium ultimum and with Phytophthora cinnamomi was under 1 µg/mL in each case. The “control over the pathogens tested” value in the experiment on oomycete plant pathogens is reported as “good to excellent control”.

Take `Cc1nc(CSc2nc3ccccc3n2-c2nnnn2C)cs1` [Example 16]: the inhibition of growth at 20 ppm in the experiment on Pythium ultimum is over 99%; in the experiment on Phytophthora cinnamomi, 50 to 99%. Also, the 50% effective concentration (EC50) in the experiment with Pythium ultimum and with Phytophthora cinnamomi was 1 to 20 µg/mL (≈ 2.91 to 58.2 µM) each time. Moreover, the “control over the pathogens tested” value in the experiment with oomycete plant pathogens is listed as “good to excellent control”.

In the experiment on Pythium ultimum, `CNc1nc(CSc2nc3ccccc3n2-c2nnnn2C)cs1` [Example 17] showed an inhibition of growth at 20 ppm of over 99% and a concentration giving a half-maximal response (EC50) of under 1 µg/mL. Besides, in the experiment with Phytophthora cinnamomi, the inhibition of growth at 20 ppm is over 99% and the concentration giving a half-maximal response (EC50) was under 1 µg/mL. In the experiment with oomycete plant pathogens, the “control over the pathogens tested” value is recorded as “good to excellent control”.

Consider `Cc1nccnc1-n1c(SCc2ccccn2)nc2ccccc21` [Example 20], for which, in the experiment with Pythium ultimum, the inhibition of growth at 20 ppm was under 50% and the concentration for a half-maximal effect (EC50) is over 20 µg/mL. Further, in the experiment on Phytophthora cinnamomi, the “% control Phytophthora spp. 20 ppm” value is given as “D” and the EC50 is over 20 µg/mL.

With `Cn1nnnc1-n1c(SCc2cccc(C(=O)O)n2)nc2ccccc21` [Compound 29], the “% control Pythium ultimum 20 ppm” value with Pythium ultimum is on record as “D”. Also, the inhibition of growth at 20 ppm with Phytophthora cinnamomi is under 50%.

Take `COC(=O)c1cccc(CSc2nc3ccccc3n2-c2ncccc2C)n1` [Example 46]: the “% control Pythium ultimum 20 ppm” value in the experiment on Pythium ultimum is recorded as “D”. The inhibition of growth at 20 ppm in the experiment with Phytophthora cinnamomi was under 50%.

Take `Cn1ccnc1-n1c(SCc2cccc(NC(=O)C(F)(F)Oc3ccccc3)n2)nc2ccccc21` [Example 50]: the EC50 in the experiment on Pythium ultimum and in the experiment with Phytophthora cinnamomi was under 1 µg/mL each time. Further, the “control over the pathogens tested” value with oomycete plant pathogens is listed as “good to excellent control”.

As to `Cc1cc(-n2c(SCc3ccccn3)nc3ccccc32)sn1` [Example 14], the inhibition of growth at 20 ppm in the experiment with Pythium ultimum and with Phytophthora cinnamomi was under 50% each time.

On to `COC(=O)CSc1nc2ccccc2n1-c1nnnn1C` [Example 24], for which the results for the inhibition of growth at 20 ppm with Pythium ultimum and in the experiment on Phytophthora cinnamomi were under 50% and 50 to 99%, respectively.

In the case of `Cn1nnnc1-n1c(SCc2csc(NC(=O)C(F)(F)Oc3ccccc3)n2)nc2ccccc21` [Example 22], the half-maximal effective concentration (EC50) with Pythium ultimum and in the experiment with Phytophthora cinnamomi was under 1 µg/mL in each case. The “control over the pathogens tested” value in the experiment on oomycete plant pathogens is “good to excellent control”.

In the case of `Cn1nnnc1-n1c(SCc2cnc(Cl)s2)nc2ccccc21` [Compound 30], in the experiment on Pythium ultimum, the “% control Pythium ultimum 20 ppm” value is “D” and the EC50 was over 20 µg/mL. For the same molecule, in the experiment on Phytophthora cinnamomi, the “% control Phytophthora spp. 20 ppm” value is “D” and the EC50 is over 20 µg/mL.

`CC(=O)Nc1nc(CSc2nc3ccccc3n2-c2nnnn2C)cs1` [Example 11]: the EC50 in the experiment on Pythium ultimum and in the experiment with Phytophthora cinnamomi was under 1 µg/mL throughout. For the same molecule, the “control over the pathogens tested” value with oomycete plant pathogens was “good to excellent control”.

Molecule `COC(=O)c1cccc(CSc2nc3ccccc3n2-c2nnnn2C)n1` [Example 18] showed an inhibition of growth at 20 ppm with Pythium ultimum of under 50%. Also, the “% control Phytophthora spp. 20 ppm” value with Phytophthora cinnamomi is on record as “D”.

Take `O=C(Nc1cccc(CSc2nc3ccccc3n2-c2ncncc2Cl)n1)C(F)(F)Oc1ccccc1` [Example 45]: the EC50 in the experiment on Pythium ultimum and with Phytophthora cinnamomi was under 1 µg/mL in each case. Further, in the experiment on oomycete plant pathogens, the “control over the pathogens tested” value is “good to excellent control”.

`Cn1nccc1-n1c(SCc2ccccn2)nc2ccccc21` [Example 5]: the inhibition of growth at 20 ppm in the experiment on Pythium ultimum and in the experiment on Phytophthora cinnamomi was under 50% in each case.

As to `Cn1nnnc1-n1c(SCc2ccccn2)nc2c(F)cc(F)cc21` [Example 21], the inhibition of growth at 20 ppm with Pythium ultimum and with Phytophthora cinnamomi was over 99% each time. The EC50 in the experiment on Pythium ultimum and with Phytophthora cinnamomi was under 1 µg/mL throughout. Also, the “control over the pathogens tested” value in the experiment on oomycete plant pathogens is given as “good to excellent control”.

For `Cc1cccnc1-n1c(SCc2cccc(NCC(F)(F)Oc3ccccc3)n2)nc2ccccc21` [Example 4], the EC50 in the experiment on Pythium ultimum and in the experiment with Phytophthora cinnamomi was 1 to 20 µg/mL (≈ 1.99 to 39.7 µM) in each case.

In the experiment on Pythium ultimum, `Cn1nnnc1-n1c(SCc2ccccn2)nc2ccc(Br)cc21` [Example 52] came in with an inhibition of growth at 20 ppm of 50 to 99% and an EC50 of 1 to 20 µg/mL (≈ 2.49 to 49.7 µM). Also, in the experiment on Phytophthora cinnamomi, the inhibition of growth at 20 ppm lay in the range of 50 to 99% and the EC50 is under 1 µg/mL. The “control over the pathogens tested” value in the experiment on oomycete plant pathogens was “good to excellent control”.

In the experiment on Pythium ultimum, `Cc1cccc(CSc2nc3ccccc3n2-c2nnnn2C)n1` [Example 13] returned an inhibition of growth at 20 ppm of under 50% and a concentration giving a half-maximal response (EC50) of over 20 µg/mL. Also, in the experiment on Phytophthora cinnamomi, the “% control Phytophthora spp. 20 ppm” value is given as “D” and the 50% effective concentration (EC50) is over 20 µg/mL.

With `Cn1nnnc1-n1c(SCc2csc(N)n2)nc2ccccc21` [Example 3], the inhibition of growth at 20 ppm in the experiment with Pythium ultimum and with Phytophthora cinnamomi was over 99% in each case. Besides, the “control over the pathogens tested” value in the experiment on oomycete plant pathogens is “good to excellent control”.

In the case of `Cn1nnnc1-n1c(SCc2cccc(NC(=O)OC(C)(C)C)n2)nc2ccccc21` [Example 9], the EC50 in the experiment on Pythium ultimum and with Phytophthora cinnamomi was under 1 µg/mL each time. Moreover, in the experiment with oomycete plant pathogens, the “control over the pathogens tested” value was “good to excellent control”.

In the experiment with Pythium ultimum, `c1ccc(CSc2nc3ccccc3n2-c2ncon2)nc1` [Compound 31] yielded an inhibition of growth at 20 ppm of under 50% and a half-maximal effective concentration (EC50) of over 20 µg/mL. For the same molecule, the concentration giving a half-maximal response (EC50) in the experiment with Phytophthora cinnamomi is over 20 µg/mL.

Take `Cn1nnnc1-n1c(SCc2cccc(NC(=O)C(F)(F)Oc3ccccc3)n2)nc2ccccc21` [Example 1, 2,2-Difluoro-N-(6-(((1-(1-methyl-1H-tetrazol-5-yl)-1H-benzo[d]imidazol-2-yl)thio)methyl)pyridin-2-yl)-2-phenoxyacetamide]: in the experiment on Pythium ultimum, the inhibition of growth at 20 ppm was over 99% and the 50% effective concentration (EC50) was under 1 µg/mL. Moreover, in the experiment on Phytophthora cinnamomi, the inhibition of growth at 20 ppm is over 99% and the half-maximal effective concentration (EC50) was under 1 µg/mL. Also, in the experiment with oomycete plant pathogens, the “control over the pathogens tested” value is given as “good to excellent control”.

As for `Cn1nnnc1-n1c(SCc2csc(NC(=O)OC(C)(C)C)n2)nc2ccccc21` [Example 23], the EC50 in the experiment with Pythium ultimum and in the experiment with Phytophthora cinnamomi was under 1 µg/mL in each case. Moreover, the “control over the pathogens tested” value in the experiment on oomycete plant pathogens is recorded as “good to excellent control”.

On to `Cc1noc(-n2c(SCc3ccccn3)nc3ccccc32)c1C` [Example 6], for which the inhibition of growth at 20 ppm with Pythium ultimum and with Phytophthora cinnamomi was 50 to 99% in each case.

For `Cn1nnnc1-n1c(SCc2cccc(N)n2)nc2ccccc21` [Example 26, 6-(((1-(1-Methyl-1H-tetrazol-5-yl)-1H-benzo[d]imidazol-2-yl)thio)methyl)pyridin-2-amine], the inhibition of growth at 20 ppm in the experiment on Pythium ultimum and in the experiment on Phytophthora cinnamomi was over 99% throughout. Further, the “control over the pathogens tested” value in the experiment on oomycete plant pathogens is on record as “good to excellent control”.

For the molecule `O=C(Nc1cccc(CSc2nc3ccccc3n2-c2ccccn2)n1)C(F)(F)Oc1ccccc1` [Compound 33], in the experiment with Pythium ultimum, the “% control Pythium ultimum 20 ppm” value was “D” and the EC50 is over 20 µg/mL. In addition, in the experiment with Phytophthora cinnamomi, the “% control Phytophthora spp. 20 ppm” value was “D” and the EC50 was over 20 µg/mL.

On to `Cn1nnnc1-n1c(SCc2cscn2)nc2ccccc21` [Example 12], for which the EC50 in the experiment with Pythium ultimum and with Phytophthora cinnamomi was under 1 µg/mL in each case. Moreover, the “control over the pathogens tested” value in the experiment on oomycete plant pathogens was “good to excellent control”.

In the experiment with Pythium ultimum, `c1ccc(CSc2nc3ccccc3n2-c2ccon2)nc1` [Example 15] showed an inhibition of growth at 20 ppm of under 50% and an EC50 of over 20 µg/mL. For the same molecule, in the experiment with Phytophthora cinnamomi, the “% control Phytophthora spp. 20 ppm” value is “D” and the EC50 is over 20 µg/mL.

In the case of `c1ccc(CSc2nc3ccccc3n2-c2ccccn2)nc1` [Compound 32], the “% control Pythium ultimum 20 ppm” value in the experiment with Pythium ultimum is given as “D”. In addition, the “% control Phytophthora spp. 20 ppm” value with Phytophthora cinnamomi is “D”.

For `Cc1cccnc1-n1c(SCc2ccccn2)nc2ccccc21` [Example 10], the results for the inhibition of growth at 20 ppm in the experiment on Pythium ultimum and in the experiment with Phytophthora cinnamomi were 50 to 99% and under 50%, respectively.
